Test results from patent US9051330B2, “Dithiolopyrrolones with therapeutic activity” (Welichem Biotech Inc., priority 2002, dated 2015).
Where two headings read alike, the source gives them in different places.

How the values were obtained:
Format in all cases: cell-based, human
Ovcar-3 cell line = assay: NCI standard anti-proliferative test, ovarian cancer Ovcar-3 cells
Excerpt: (§1) These assays are commonly used by those skilled in the art and are accepted as indicative of antiproliferative activity in mammals. The antiproliferative activities of the compounds of the invention have been determined in cell cultures of human ovarian cancer, using a standard anti-proliferative test of the US National Cancer Institute (NCI). [Monks, A. et al., J. Natl. Cancer Inst. 83(11): 757-766, 1991].
The novel compound had activity against 56 cancer cell lines of a wide range of major cancers. (Table 1a).

H460 = assay: NCI standard anti-proliferative test, H460 cells
CCRF-CEM = assay: NCI anti-proliferative test, Leukemia CCRF-CEM
HL-60(TB) = assay: NCI anti-proliferative test, Leukemia HL-60(TB)
K-562 = assay: NCI anti-proliferative test, Leukemia K-562
MOLT-4 = assay: NCI anti-proliferative test, Leukemia MOLT-4
RPMI-8226 = assay: NCI anti-proliferative test, Leukemia RPMI-8226
SR = assay: NCI anti-proliferative test, Leukemia SR
A549/ATCC = assay: NCI anti-proliferative test, Non-Small Cell Lung Cancer A549/ATCC
EKVX = assay: NCI anti-proliferative test, Non-Small Cell Lung Cancer EKVX
HOP-62 = assay: NCI anti-proliferative test, Non-Small Cell Lung Cancer HOP-62
HOP-92 = assay: NCI anti-proliferative test, Non-Small Cell Lung Cancer HOP-92
NCI-H226 = assay: NCI anti-proliferative test, Non-Small Cell Lung Cancer NCI-H226
NCI-H23 = assay: NCI anti-proliferative test, Non-Small Cell Lung Cancer NCI-H23
NCI-H322M = assay: NCI anti-proliferative test, Non-Small Cell Lung Cancer NCI-H322M
NCI-H522 = assay: NCI anti-proliferative test, Non-Small Cell Lung Cancer NCI-H522
COLO 205 = assay: NCI anti-proliferative test, Colon Cancer COLO 205
HCC-2998 = assay: NCI anti-proliferative test, Colon Cancer HCC-2998
HCT-116 = assay: NCI anti-proliferative test, Colon Cancer HCT-116
HCT-15 = assay: NCI anti-proliferative test, Colon Cancer HCT-15
HT29 = assay: NCI anti-proliferative test, Colon Cancer HT29
KM12 = assay: NCI anti-proliferative test, Colon Cancer KM12
SW-620 = assay: NCI anti-proliferative test, Colon Cancer SW-620
SF-268 = assay: NCI anti-proliferative test, CNS Cancer SF-268
SF-295 = assay: NCI anti-proliferative test, CNS Cancer SF-295
SF-539 = assay: NCI anti-proliferative test, CNS Cancer SF-539
SNB-19 = assay: NCI anti-proliferative test, CNS Cancer SNB-19
U251 = assay: NCI anti-proliferative test, CNS Cancer U251
LOX IMVI = assay: NCI anti-proliferative test, Melanoma LOX IMVI
MALME-3M = assay: NCI anti-proliferative test, Melanoma MALME-3M
M14 = assay: NCI anti-proliferative test, Melanoma M14
SK-MEL-2 = assay: NCI anti-proliferative test, Melanoma SK-MEL-2
SK-MEL-28 = assay: NCI anti-proliferative test, Melanoma SK-MEL-28
SK-MEL-5 = assay: NCI anti-proliferative test, Melanoma SK-MEL-5
UACC-257 = assay: NCI anti-proliferative test, Melanoma UACC-257
UACC-62 = assay: NCI anti-proliferative test, Melanoma UACC-62
IGROV1 = assay: NCI anti-proliferative test, Ovarian Cancer IGROV1
Excerpt: as §1

OVCAR-5 = assay: NCI anti-proliferative test, Ovarian Cancer OVCAR-5
Excerpt: as §1

OVCAR-8 = assay: NCI anti-proliferative test, Ovarian Cancer OVCAR-8
Excerpt: as §1

786-0 = assay: NCI anti-proliferative test, Renal Cancer 786-0
A498 = assay: NCI anti-proliferative test, Renal Cancer A498
ACHN = assay: NCI anti-proliferative test, Renal Cancer ACHN
CAKI-1 = assay: NCI anti-proliferative test, Renal Cancer CAKI-1
RXF 393 = assay: NCI anti-proliferative test, Renal Cancer RXF 393
SN12C = assay: NCI anti-proliferative test, Renal Cancer SN12C
TK-10 = assay: NCI anti-proliferative test, Renal Cancer TK-10
UO-31 = assay: NCI anti-proliferative test, Renal Cancer UO-31
PC-3 = assay: NCI anti-proliferative test, Prostate Cancer PC-3
DU-145 = assay: NCI anti-proliferative test, Prostate Cancer DU-145
MCF7 = assay: NCI anti-proliferative test, Breast Cancer MCF7
NCI/ADR-RES = assay: NCI anti-proliferative test, Breast Cancer NCI/ADR-RES
MDA-MB-231/ATCC = assay: NCI anti-proliferative test, Breast Cancer MDA-MB-231/ATCC
HS 578T = assay: NCI anti-proliferative test, Breast Cancer HS 578T
MDA-MB-435 = assay: NCI anti-proliferative test, Breast Cancer MDA-MB-435
BT-549 = assay: NCI anti-proliferative test, Breast Cancer BT-549
T-47D = assay: NCI anti-proliferative test, Breast Cancer T-47D
[1] = ovarian cancer cells Ovcar-3, comparison with XN3
[2] = cancer cell line H460, read-out: IC50 H460

COc1ccc(-n2c3cssc-3c(NC(=O)c3ccc([N+](=O)[O-])cc3)c2=O)c(OC)c1 [Compound 0038]
IC50 (Ovcar-3 cell line; [1]): 68 nM

COc1ccc(-n2c3cssc-3c(NC(=O)c3cc(F)cc(F)c3)c2=O)c(OC)c1 [Compound R3]
IC50 (Ovcar-3 cell line; [1]): 78 nM

COc1ccc(-n2c3cssc-3c(NC(=O)CCC(=O)O)c2=O)c(OC)c1 [BLI-031-2]
IC50 (H460; [2]): > 50000 nM

COc1ccc(-n2c3cssc-3c(NC(=O)c3cc(C(F)(F)F)cc(C(F)(F)F)c3)c2=O)c(OC)c1 [Compound 0058]
IC50 (Ovcar-3 cell line; Ovarian Cancer, OVCAR-3, 56 cell line panel): 30 nM | IC50 (Ovcar-3 cell line; [1]): 34 nM | IC50 (H460; Non-Small Cell Lung Cancer, NCI-H460, 56 cell line panel, read-out: IC50): 260 nM | IC50 (CCRF-CEM): < 10 nM | IC50 (HL-60(TB)): 19 nM | IC50 (K-562): 19 nM | IC50 (MOLT-4): 150 nM | IC50 (RPMI-8226): < 10 nM | IC50 (SR): 20 nM | IC50 (A549/ATCC): 420 nM | IC50 (EKVX): 130 nM | IC50 (HOP-62): 130 nM | IC50 (HOP-92): 180 nM | IC50 (NCI-H226): 270 nM | IC50 (NCI-H23): 210 nM | IC50 (NCI-H322M): 8560 nM | IC50 (NCI-H522): 190 nM | IC50 (COLO 205): 150 nM | IC50 (HCC-2998): 110 nM | IC50 (HCT-116): 16 nM | IC50 (HCT-15): 20 nM | IC50 (HT29): 50 nM | IC50 (KM12): 2970 nM | IC50 (SW-620): 34 nM | IC50 (SF-268): 140 nM | IC50 (SF-295): 230 nM | IC50 (SF-539): 180 nM | IC50 (SNB-19): 230 nM | IC50 (U251): 150 nM | IC50 (LOX IMVI): 14 nM | IC50 (MALME-3M): 190 nM | IC50 (M14): 240 nM | IC50 (SK-MEL-2): 180 nM | IC50 (SK-MEL-28): 16 nM | IC50 (SK-MEL-5): 120 nM | IC50 (UACC-257): 150 nM | IC50 (UACC-62): 190 nM | IC50 (IGROV1): 170 nM | IC50 (OVCAR-5): 450 nM | IC50 (OVCAR-8): 170 nM | IC50 (786-0): 60 nM | IC50 (A498): 190 nM | IC50 (ACHN): 140 nM | IC50 (CAKI-1): 440 nM | IC50 (RXF 393): 40 nM | IC50 (SN12C): 120 nM | IC50 (TK-10): 1370 nM | IC50 (UO-31): 200 nM | IC50 (PC-3): 40 nM | IC50 (DU-145): 13 nM | IC50 (MCF7): 170 nM | IC50 (NCI/ADR-RES): 1040 nM | IC50 (MDA-MB-231/ATCC): 130 nM | IC50 (HS 578T): 220 nM | IC50 (MDA-MB-435): 220 nM | IC50 (BT-549): 150 nM | IC50 (T-47D): 13 nM

COc1ccc(-n2c3cssc-3c(NC(=O)Cc3cccs3)c2=O)c(OC)c1 [Compound 0037]
IC50 (Ovcar-3 cell line; [1]): 71 nM

COc1ccc(-n2c3cssc-3c(NC(=O)c3ccc(C(F)(F)F)cc3)c2=O)c(OC)c1 [BLI-093]
IC50 (Ovcar-3 cell line; [1]): 54 nM

COc1ccc(-n2c3cssc-3c(NC(=O)c3cccs3)c2=O)c(OC)c1 [WBL-007]
IC50 (Ovcar-3 cell line; [1]): 28 nM

COc1ccc(-n2c3cssc-3c(NC(=O)c3ccc(F)cc3)c2=O)c(OC)c1 [WBL-018]
IC50 (Ovcar-3 cell line; [1]): 70 nM

COc1ccc(-n2c3cssc-3c(NC(=O)c3ccc(F)c(F)c3F)c2=O)c(OC)c1 [Compound R4]
IC50 (Ovcar-3 cell line; [1]): 46 nM

COc1ccc(-n2c3cssc-3c(NC(=O)c3ccc(CN4CCNCC4)cc3)c2=O)c(OC)c1 [Compound 0069]
IC50 (H460; [2]): 40 nM
